# From patent publication US6376666B1 (Nauchno-Issledovatelsky Institut Farmakologii Rossiiskoi …, priority 1994, dated 2002)
# Where a name gives a salt, the structure may show the parent alone.
# Key:
# Balb/c mice = assay: open-field test, Balb/c mice (passive type of emotional-stress reaction); type: in vivo; conditions: i.p., screening
# Outline: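 Male mice, 20-22 g, dosed i.p. in water 30 min before a 3-min open-field test after 1 min in darkness; peripheral, central, rearing and total activity plus defecations recorded; Student t-test. Anxiolysis read as Balb/c activation, sedation as C57B1/6 inhibition.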
# aconitine arrhythmia = assay: animal or person; type: in vivo, rats; conditions: for LD50/ED50 (antiarrhythmic index): LD50 i.v. / ED50 aconitine arrhythmia; for ED50: Rattus norvegicus, iv, read-out: Aconitine arrhythmia ED50
# Experimental: Aconitine arrhythmia. The aconitine arrhythmia was induced in concious rats weighing 180-200 g by the injection in tail vein of the aconitine sulfate solution at dose range of […]. […] The tested compounds were administered i.v. 3 min prior aconitine injection. The ED50 value was calculated according to Litchfield's method.
# [1] = after i.v. injection
# [2] = tested on: calcium chloride arrhythmia; assay: calcium chloride arrhythmia in concious rats; type: in vivo; conditions: Rattus norvegicus, iv, concious rats, given 2 min prior calcium chloride 250-300 mg/kg i.v.; read-out: Calcium chloride arrhythmia ED50 (mean effective dose)
# Experimental: In these experiments the outbred concious rats 180-200 g of weight were injected with 10% solution of calcium chloride in tail vein at dose range of 250-300 mg/kg.
# adrenaline arrhythmia = adrenaline arrhythmia in concious rabbits; conditions: given 2 min before arrhythmogenic dose of adrenaline
# Experimental: Adrenaline arrhythmia. The 0,1% solution of adrenaline hydrochloride was injected to the marginal ear's vein of rabbit weighing 2,5-3,0 kg at dose ranging 120-150 mcg/kg which induced cardiac rhythm disturbances of two types.
# The tested compound was injected in 3 ml of distilled water 30 min after determination of arrhythmogenic dose of adrenaline and the ECG was recorded in 2nd standard lead. 2 min after administration of tested compound the arrhythmogenic dose of adrenaline was injected.
# in vivo = conditions: iv
# cats = assay: hemodynamics and activity of intact heart in cats under anesthesia; type: in vivo; conditions: for effect on heart rate, in words: VIII 1,0, IX 0,5 and 1,0, XX 1,0 and 2,0 mg/kg, XXIII 1.0, verapamil 0.5 mg/kg
# Experimental: The effects of compounds on the hemodynamics and activity of intact heart were studied in cats under anesthesia. The experiments were carried out under conditions of open chest. The phase curve of aortic blood flow was the main index of cardiac activity. The compounds were administered i.v. in physiological solution. The t-Student' test was used to estimate the statistical significance.
# [3] = tested on: ischemized myocardium of cats; assay: ST-segment elevation during 5 min occlusions of coronary artery (acute coronary deficiency); type: in vivo; conditions: cats, bolus injection
# Experimental: These experiments were conducted in cats weighing 2,5-4,0 kg under anasthesia by i.v. injection of nembutal (40 mg/kg) in open chest conditions. Epicardium electrogram in 3-4 leads was registered in “Mingograph-81”. The value of mean elevation of ST-segment during 5 min occlusions of anterior left descending coronary artery with 15 min reperfusions between them was the main index of intensity of reversible ischemized damage of myocardium.
# The statistical calculation was carried out with non-parametric Wilcocson method for associated variants.
# [4] = tested on: ischemized myocardium of cats; assay: contractile and pump functions and ATP level of ischemized myocardium (20-40 min occlusion, reperfusion); type: in vivo
# Experimental: The effects of this compound on contractile and pump functions of ischemized myocardium were studied in cats weighing 3,0-4,5 kg under anesthesia with nembutal (40 mg/kg). […] The phase curve of blood flow in ascending part of the aortic arch was recorded with electromagnetic blood flowmeter MFV-1200 (“Nihon-Kohden”, Japan). Hemodynamics, heart activity values and the number of arrhythmia were calculated. In the experiments with 40 min ischemia immediately after 60 min the intact and ischemized zones of left ventricle were dissected and freezed in liquid nitrogen. ATP level was measured using hexokinase method in these zones. 4 series of experiments (2-control and 2-basic) were conducted in 12 cats in each. For statistical calculation the t-Student and Fisher's precision test were used.
# [5] = tested on: ventricular disturbances of heart rhythm; assay: arrhythmia in concious dogs according to Harris; type: in vivo; conditions: for % ectopic contractions, change vs basal level / Heart rate, change vs basal level: concious dogs, 2 mg/kg i.v.
# Experimental: The arrhythmia in concious dogs according to Harris. The experiments were conducted in mongrel dogs of either sex weighing 9-14 kg. Under anesthesia (40 mg/kg of nembutal i.v.) and artificial respiration the two-step occlusion of the left anterior descending coronary artery was performed. The constant ECG disturbances of the heart rhythm were recorded after 24 hours. […] T-Student' test was used for statistical calculation.
# [6] = 0.5 mg/kg i.v., 0.25 min after injection
# [7] = cats, 0.5 mg/kg i.v., after 2 min
# [8] = cats, 0.5 mg/kg i.v., after 5 min
# [9] = cats, 0.5 mg/kg i.v., after 10 min
# [10] = cats, 0.5 mg/kg i.v., after 20 min
# [11] = cats, 0.5 mg/kg i.v., after 30 min
# [12] = 1.0 mg/kg i.v., 0.25 min after injection
# [13] = cats, 1.0 mg/kg i.v., after 2 min
# [14] = cats, 1.0 mg/kg i.v., after 5 min
# [15] = cats, 1.0 mg/kg i.v., after 10 min
# [16] = cats, 1.0 mg/kg i.v., after 20 min
# [17] = cats, 1.0 mg/kg i.v., after 30 min
compound,measurement,setting,value
"Cc1cc2nc(SCCN3CCCC3)[nH]c2cc1C (as salt: hydrochloride) (hydrate or solvate) [XIII, 2-[2-(Pyrrolidino)ethylthio]-5,6-dimethylbenzimidazole]",melting point,,115 to 116 °C (dec.)
"CCOc1ccc2nc(SCCN3CCCC3)[nH]c2c1 (as salt: hydrochloride) [Compound X, 2-[2-(Pyrrolidino)ethylthio]-5-ethoxybenzimidazole]",melting point,,127 to 130 °C (dec.)
"C=CCSc1nc2cc(C)c(C)cc2[nH]1 (as salt: hydrochloride) [III, 2-Allylthio-5,6-dimethylbenzimidazole]",melting point,,119 to 120 °C
"C=CCSc1nc2ccc(OCC)cc2[nH]1 (as salt: hydrochloride) [IV, 2-Allylthio-5-ethoxybenzimidazole]",melting point,,252 to 254 °C (dec.)
"CCN(CC)CCSc1nc2ccccc2n1CCc1ccccc1 (as salt: hydrochloride) [XXI, 1-(β-Phenylethyl)-2-[2-(diethylamino)ethylthio]benzimidazole]",melting point,,129 to 130 °C
"CCSc1nc2cc(C)c(C)cc2[nH]1 [Compound I, 2-Ethylthio-5,6-dimethylbenzimidazole]","effect on the behavior (locomotor activity) of Balb/c mice in open-field test, in words",Balb/c mice,neither activatory nor inhibitory effects
same,melting point,,123 to 124 °C
CCOC(=O)Nc1ccc2c(c1)N(C(=O)CCN1CCOCC1)c1ccccc1S2 [Etmosin],LD50/ED50 (antiarrhythmic index),aconitine arrhythmia,58.6
same,Aconitine arrhythmia ED50,"aconitine arrhythmia; concious rats, i.v. 3 min prior aconitine",0.28 mg/kg
same,Acute toxicity LD50,[1],16.4 mg/kg
"CCCSc1nc2cc(C)c(C)cc2[nH]1 [II, 2-Propylthio-5,6-dimethylbenzimidazole]",melting point,,122 to 123 °C
"CCN(CC)CC(=O)Nc1c(C)cccc1C [Lidocaine, lidocaine]",ED50,[2],7.5 mg/kg
same,ED50,aconitine arrhythmia,7.8 mg/kg
same,Adrenaline arrhythmia. Range of active doses,adrenaline arrhythmia,5.0 to 8.0 mg/kg
"CCN(CC)CCNC(=O)c1ccc(N)cc1 [Novocainamide, novocainamide, reference compound]",ED50,[2],50 mg/kg
same,LD50/ED50 (antiarrhythmic index),aconitine arrhythmia,2.7
same,ED50,aconitine arrhythmia,41 mg/kg
same,LD50,in vivo,110 mg/kg
"CC(C)NCC(O)COc1cccc2ccccc12 (centres unmarked) [Propranolol, propranolol, reference compound]",ED50,[2],0.8 mg/kg
same,Adrenaline arrhythmia. Range of active doses,adrenaline arrhythmia,0.3 to 1.0 mg/kg
"COc1ccc(CCN(C)CCCC(C#N)(c2ccc(OC)c(OC)c2)C(C)C)cc1OC (centres unmarked) [Verapamil, verapamil, reference compound]","Heart rate, change from basal level",cats; [6],−13.7 ± 1.7 %
same,"Mean blood flow accelaration, change from basal level",cats; [6],−32.5 ± 5.7 %
same,"Mean blood pressure, change from basal level",cats; [6],−40.4 ± 7.0 %
same,"effect on heart rate, in words",cats; cats i.v.,induced the bradycardia
same,"Heart rate, change from basal level",cats; [7],−11.8 ± 2.0 %
same,"Mean blood flow accelaration (aortic), change from basal level",cats; [7],−15.5 ± 2.4 %
same,"Mean blood pressure, change from basal level",cats; [7],−22.7 ± 8.1%
same,"Heart rate, change from basal level",cats; [8],−12.3 ± 3.0 %
same,"Mean blood flow accelaration (aortic), change from basal level",cats; [8],−8.1 ± 3.0 %
same,"Mean blood pressure, change from basal level",cats; [8],−8.7 ± 6.3%
same,"Heart rate, change from basal level",cats; [9],−8.1 ± 2.0 %
same,"Mean blood flow accelaration (aortic), change from basal level",cats; [9],−9.9 ± 2.5 %
same,"Mean blood pressure, change from basal level",cats; [9],−2.4 ± 2.6%
same,"Heart rate, change from basal level",cats; [10],−5.4 ± 2.0 %
same,"Mean blood flow accelaration (aortic), change from basal level",cats; [10],−8.7 ± 3.0%
same,"Mean blood pressure, change from basal level",cats; [10],−8.5 ± 6.6%
same,"Heart rate, change from basal level",cats; [11],−4.6 ± 3.4%
same,"Mean blood flow accelaration (aortic), change from basal level",cats; [11],−7.0 ± 4.2%
same,"Mean blood pressure, change from basal level",cats; [11],−11.6 ± 7.0%
same,ED50,[2],1.1 mg/kg
same,Adrenaline arrhythmia. Range of active doses,adrenaline arrhythmia,0.3 to 1.0 mg/kg
"CCN(CC)CCSc1nc2cc(C)c(C)cc2[nH]1.Cl.Cl [XXIII, dihydroxychloride 2-[2-(diethylamino)ethylthio]-5,6-dimethylbenzimidazole, reference compound]","Cardiac volume, change from basal level",cats; [12],+3.6 ± 3.5%
same,"Heart rate, change from basal level",cats; [12],−14.6 ± 1.2 %
same,"Mean blood flow accelaration, change from basal level",cats; [12],+2.1 ± 4.9%
same,"Mean blood pressure, change from basal level",cats; [12],−13.9 ± 2.9 %
same,"effect on contractile function of heart, in words","cats; cats i.v., same doses as bradycardia",inhibition of contractile function of heart
same,"effect on heart rate, in words",cats; cats i.v.,expressed and long bradycardia
same,"Cardiac volume, change from basal level",cats; [13],−3.6 ± 2.0%
same,"Heart rate, change from basal level",cats; [13],−11.7 ± 1.3 %
same,"Mean blood flow accelaration (aortic), change from basal level",cats; [13],−4.9 ± 4.7%
same,"Mean blood pressure, change from basal level",cats; [13],−0.2 ± 4.0%
same,"Cardiac volume, change from basal level",cats; [14],−0.6 ± 2.3%
same,"Heart rate, change from basal level",cats; [14],−7.9 ± 1.6 %
same,"Mean blood flow accelaration (aortic), change from basal level",cats; [14],−1.0 ± 5.0%
same,"Mean blood pressure, change from basal level",cats; [14],+3.4 ± 2.5%
same,"Cardiac volume, change from basal level",cats; [15],−0.7 ± 3.6%
same,"Heart rate, change from basal level",cats; [15],−5.1 ± 1.2 %
same,"Mean blood flow accelaration (aortic), change from basal level",cats; [15],+8.1 ± 3.0 %
same,"Mean blood pressure, change from basal level",cats; [15],+3.8 ± 3.2%
same,"Cardiac volume, change from basal level",cats; [16],−4.2 ± 2.4%
same,"Heart rate, change from basal level",cats; [16],−3.8 ± 1.5 %
same,"Mean blood flow accelaration (aortic), change from basal level",cats; [16],+4.3 ± 2.7%
same,"Mean blood pressure, change from basal level",cats; [16],+2.8 ± 2.8%
same,"Cardiac volume, change from basal level",cats; [17],−4.5 ± 3.5%
same,"Heart rate, change from basal level",cats; [17],−4.1 ± 1.0 %
same,"Mean blood flow accelaration (aortic), change from basal level",cats; [17],−2.4 ± 3.4%
same,"Mean blood pressure, change from basal level",cats; [17],+2.9 ± 3.2%
same,"duration of effect on ST-segment elevation after bolus injection, in words",[3],very short
same,"effect on inhibition of contractile function of myocardium induced by ischemic damage, in words","[4]; 20 min occlusion, 30 min reperfusion, 1,0 mg/kg bolus +50 mcg/kg/min i.v. during 30 min",observable only during occlusion period and first 10 min of reperfusion
same,"effect on ATP level in ischemized myocardium, in words","[4]; 40 min occlusion, 60 min reperfusion, hexokinase method",did not change the ATP level
same,"% ectopic contractions, change vs basal level",[5]; after 1 min,−57.4 ± 17.6 %
same,"Heart rate, change vs basal level",[5]; after 1 min,−19.0 ± 2.5 beats/min
same,"% ectopic contractions, change vs basal level",[5]; after 3 min,−66.2 ± 18.1 %
same,"% ectopic contractions, change vs basal level",[5]; after 5 min,−54.6 ± 16.8 %
same,"Heart rate, change vs basal level",[5]; after 5 min,−30.4 ± 4.5 beats/min
same,"% ectopic contractions, change vs basal level",[5]; after 10 min,−22.6 ± 8.9 %
same,"% ectopic contractions, change vs basal level",[5]; after 15 min,−24.8 ± 11.1 %
same,"Heart rate, change vs basal level",[5]; after 15 min,−29.0 ± 5.5 beats/min
same,"% ectopic contractions, change vs basal level",[5]; after 30 min,−8.8 ± 4.7%
same,"Heart rate, change vs basal level",[5]; after 30 min,−14.0 ± 4.8 beats/min
same,"% ectopic contractions, change vs basal level",[5]; after 60 min,−5.2 ± 2.6%
same,"Heart rate, change vs basal level",[5]; after 60 min,−12.0 ± 5.5 beats/min
same,duration of antiarrhythmic effect,"[5]; concious dogs, 2,0 mg/kg i.v.",shorter
